Measurements reported in the kinase profiling compilation of Christmann-Franck et al. (2016).

Key:
Assay in all cases: KINOMEscan competition binding
Conditions in all cases: compound 10.0 µM
AKT1 (human) = AKT1 (human) (UniProt P31749)
[1] = system: MET (human), P08581 [M1250T]
ITK (human) = ITK (human) (UniProt Q08881)
TGFBR1 (human) = TGFBR1 (human) (UniProt P36897)
ERBB4 (human) = ERBB4 (human) (UniProt Q15303)
STK16 (human) = STK16 (human) (UniProt O75716)
[2] = system: KIT (human), P10721 [D816H]
CAMK2A (human) = CAMK2A (human) (UniProt Q9UQM7)
LATS1 (human) = LATS1 (human) (UniProt O95835)
GAK (human) = GAK (human) (UniProt O14976)
EIF2AK2 (human) = EIF2AK2 (human) (UniProt P19525)
VRK2 (human) = VRK2 (human) (UniProt Q86Y07)
PIP5K1A (human) = PIP5K1A (human) (UniProt Q99755)
MAK (human) = MAK (human) (UniProt P20794)
LATS2 (human) = LATS2 (human) (UniProt Q9NRM7)
Sequence of LATS2 (human) (Q9NRM7 whole entry, looked up): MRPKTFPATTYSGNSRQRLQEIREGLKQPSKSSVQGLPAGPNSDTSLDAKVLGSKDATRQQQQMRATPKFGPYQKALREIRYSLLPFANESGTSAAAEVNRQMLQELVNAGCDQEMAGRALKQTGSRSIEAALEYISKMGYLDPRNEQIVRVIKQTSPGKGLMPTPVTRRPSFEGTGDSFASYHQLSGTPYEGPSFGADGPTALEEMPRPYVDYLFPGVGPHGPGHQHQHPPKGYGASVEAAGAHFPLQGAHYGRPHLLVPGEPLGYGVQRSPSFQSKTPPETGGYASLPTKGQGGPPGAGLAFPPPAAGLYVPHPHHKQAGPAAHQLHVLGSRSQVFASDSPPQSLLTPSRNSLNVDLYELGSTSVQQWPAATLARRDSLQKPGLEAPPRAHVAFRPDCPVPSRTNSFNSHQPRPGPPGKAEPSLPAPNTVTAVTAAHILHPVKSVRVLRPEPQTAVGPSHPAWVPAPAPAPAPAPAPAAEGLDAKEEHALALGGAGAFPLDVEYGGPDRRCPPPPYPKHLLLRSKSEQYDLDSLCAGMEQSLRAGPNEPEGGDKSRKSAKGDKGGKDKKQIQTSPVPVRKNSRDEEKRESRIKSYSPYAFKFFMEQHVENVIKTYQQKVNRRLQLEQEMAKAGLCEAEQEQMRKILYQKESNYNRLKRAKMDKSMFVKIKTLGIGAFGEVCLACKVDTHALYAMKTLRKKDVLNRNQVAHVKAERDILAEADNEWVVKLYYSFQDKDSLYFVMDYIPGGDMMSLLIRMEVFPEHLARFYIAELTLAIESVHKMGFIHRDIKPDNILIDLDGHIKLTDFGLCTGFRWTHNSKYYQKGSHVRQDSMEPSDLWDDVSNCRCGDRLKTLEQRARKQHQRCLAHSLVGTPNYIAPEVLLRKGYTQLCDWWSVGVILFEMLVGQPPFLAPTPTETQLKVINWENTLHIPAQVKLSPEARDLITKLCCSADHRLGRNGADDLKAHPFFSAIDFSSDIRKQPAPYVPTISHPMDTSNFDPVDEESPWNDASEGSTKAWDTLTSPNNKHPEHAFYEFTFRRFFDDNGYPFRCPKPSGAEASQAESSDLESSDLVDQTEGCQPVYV

MAPK11 (human) = MAPK11 (human) (UniProt Q15759)
Sequence of MAPK11 (human) (Q15759 whole entry, looked up): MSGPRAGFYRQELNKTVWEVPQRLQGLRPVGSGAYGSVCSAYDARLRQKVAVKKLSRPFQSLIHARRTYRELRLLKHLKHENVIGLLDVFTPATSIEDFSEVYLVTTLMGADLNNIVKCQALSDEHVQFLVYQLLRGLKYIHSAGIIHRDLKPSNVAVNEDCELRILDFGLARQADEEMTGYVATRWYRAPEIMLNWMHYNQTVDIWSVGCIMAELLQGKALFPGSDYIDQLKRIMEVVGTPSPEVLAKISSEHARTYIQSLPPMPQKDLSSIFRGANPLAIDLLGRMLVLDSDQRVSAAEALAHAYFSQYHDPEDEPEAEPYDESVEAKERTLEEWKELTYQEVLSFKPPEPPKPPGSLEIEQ

TIE1 (human) = TIE1 (human) (UniProt P35590)
MERTK (human) = MERTK (human) (UniProt Q12866)
NEK1 (human) = NEK1 (human) (UniProt Q96PY6)
MUSK (human) = MUSK (human) (UniProt O15146)
MYLK (human) = MYLK (human) (UniProt Q15746)
MAPK13 (human) = MAPK13 (human) (UniProt O15264)
[3] = system: EGFR (human), P00533 [A750P; 747-749 del]
EPHA8 (human) = EPHA8 (human) (UniProt P29322)
Sequence of EPHA8 (human) (P29322 whole entry, looked up): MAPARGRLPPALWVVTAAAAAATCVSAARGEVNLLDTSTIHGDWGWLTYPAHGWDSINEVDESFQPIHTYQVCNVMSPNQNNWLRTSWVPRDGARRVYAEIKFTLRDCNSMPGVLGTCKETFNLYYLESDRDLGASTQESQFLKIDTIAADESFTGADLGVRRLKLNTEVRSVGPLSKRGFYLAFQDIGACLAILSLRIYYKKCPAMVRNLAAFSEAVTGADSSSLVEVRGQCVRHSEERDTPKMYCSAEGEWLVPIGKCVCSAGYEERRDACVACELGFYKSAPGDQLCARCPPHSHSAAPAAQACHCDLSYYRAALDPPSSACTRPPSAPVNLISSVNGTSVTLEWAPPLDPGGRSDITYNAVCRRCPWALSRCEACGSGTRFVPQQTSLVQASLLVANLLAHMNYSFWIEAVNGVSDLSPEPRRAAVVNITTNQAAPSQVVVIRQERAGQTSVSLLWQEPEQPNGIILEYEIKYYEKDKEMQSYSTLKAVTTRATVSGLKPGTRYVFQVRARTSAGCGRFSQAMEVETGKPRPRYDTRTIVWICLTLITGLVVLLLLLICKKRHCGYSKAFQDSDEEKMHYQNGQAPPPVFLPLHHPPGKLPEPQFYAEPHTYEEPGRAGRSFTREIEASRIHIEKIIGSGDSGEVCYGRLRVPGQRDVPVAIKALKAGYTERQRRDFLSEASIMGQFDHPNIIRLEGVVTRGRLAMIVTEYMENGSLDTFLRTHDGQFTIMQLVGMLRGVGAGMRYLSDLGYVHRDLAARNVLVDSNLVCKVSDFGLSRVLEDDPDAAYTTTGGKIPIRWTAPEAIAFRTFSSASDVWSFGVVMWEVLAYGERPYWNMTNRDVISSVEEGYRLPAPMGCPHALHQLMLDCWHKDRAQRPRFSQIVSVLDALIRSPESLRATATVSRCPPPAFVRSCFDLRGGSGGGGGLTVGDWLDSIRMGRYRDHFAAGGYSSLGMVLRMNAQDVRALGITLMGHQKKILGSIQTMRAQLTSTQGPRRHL

EPHA1 (human) = EPHA1 (human) (UniProt P21709)
RPS6KB1 (human) = RPS6KB1 (human) (UniProt P23443)
PKN2 (human) = PKN2 (human) (UniProt Q16513)
PRKG1 (human) = PRKG1 (human) (UniProt Q13976)
NEK6 (human) = NEK6 (human) (UniProt Q9HC98)
Sequence of NEK6 (human) (Q9HC98 whole entry, looked up): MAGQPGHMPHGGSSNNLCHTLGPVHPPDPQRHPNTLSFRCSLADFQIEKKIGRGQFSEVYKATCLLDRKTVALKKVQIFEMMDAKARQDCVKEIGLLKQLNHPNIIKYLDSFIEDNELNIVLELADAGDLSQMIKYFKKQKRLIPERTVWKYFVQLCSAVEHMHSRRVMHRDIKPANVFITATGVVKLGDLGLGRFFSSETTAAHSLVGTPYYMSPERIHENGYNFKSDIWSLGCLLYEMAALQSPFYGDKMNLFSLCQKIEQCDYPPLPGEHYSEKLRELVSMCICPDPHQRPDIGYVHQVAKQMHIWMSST

MAPK14 (human) = MAPK14 (human) (UniProt Q16539)
STK3 (human) = STK3 (human) (UniProt Q13188)
TNK2 (human) = TNK2 (human) (UniProt Q07912)
Sequence of TNK2 (human) (Q07912 whole entry, looked up): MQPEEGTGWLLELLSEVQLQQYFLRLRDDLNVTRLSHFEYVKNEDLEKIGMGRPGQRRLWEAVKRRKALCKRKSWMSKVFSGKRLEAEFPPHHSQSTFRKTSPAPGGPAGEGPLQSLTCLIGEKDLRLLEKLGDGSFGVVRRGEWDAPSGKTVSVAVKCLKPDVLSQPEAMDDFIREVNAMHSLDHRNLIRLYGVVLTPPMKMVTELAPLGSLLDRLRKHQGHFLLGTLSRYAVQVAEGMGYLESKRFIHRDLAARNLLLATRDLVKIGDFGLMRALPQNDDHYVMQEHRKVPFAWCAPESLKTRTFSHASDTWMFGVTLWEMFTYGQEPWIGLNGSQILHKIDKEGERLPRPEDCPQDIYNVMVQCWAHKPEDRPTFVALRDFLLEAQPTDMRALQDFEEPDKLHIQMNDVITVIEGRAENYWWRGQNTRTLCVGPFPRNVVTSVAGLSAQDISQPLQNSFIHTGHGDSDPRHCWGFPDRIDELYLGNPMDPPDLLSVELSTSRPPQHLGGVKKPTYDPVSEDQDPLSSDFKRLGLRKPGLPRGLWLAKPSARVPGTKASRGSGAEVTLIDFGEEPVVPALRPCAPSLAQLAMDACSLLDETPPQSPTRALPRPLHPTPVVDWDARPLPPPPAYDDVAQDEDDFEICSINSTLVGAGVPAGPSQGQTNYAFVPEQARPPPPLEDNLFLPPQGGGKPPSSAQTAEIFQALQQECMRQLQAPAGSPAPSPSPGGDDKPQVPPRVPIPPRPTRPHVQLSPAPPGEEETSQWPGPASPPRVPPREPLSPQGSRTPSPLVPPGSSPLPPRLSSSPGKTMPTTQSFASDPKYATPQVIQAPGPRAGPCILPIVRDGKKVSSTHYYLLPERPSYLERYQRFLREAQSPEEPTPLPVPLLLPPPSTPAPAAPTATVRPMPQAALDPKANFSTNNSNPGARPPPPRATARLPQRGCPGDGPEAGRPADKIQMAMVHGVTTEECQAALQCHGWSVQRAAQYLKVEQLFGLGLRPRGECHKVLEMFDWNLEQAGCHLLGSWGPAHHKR

DDR2 (human) = DDR2 (human) (UniProt Q16832)
FRK (human) = FRK (human) (UniProt P42685)
ULK1 (human) = ULK1 (human) (UniProt O75385)
FER (human) = FER (human) (UniProt P16591)
CAMK1D (human) = CAMK1D (human) (UniProt Q8IU85)
KIT (human) = KIT (human) (UniProt P10721)
PRKCH (human) = PRKCH (human) (UniProt P24723)
MAP2K6 (human) = MAP2K6 (human) (UniProt P52564)

Sequence of ITK (human) (Q08881 whole entry, looked up): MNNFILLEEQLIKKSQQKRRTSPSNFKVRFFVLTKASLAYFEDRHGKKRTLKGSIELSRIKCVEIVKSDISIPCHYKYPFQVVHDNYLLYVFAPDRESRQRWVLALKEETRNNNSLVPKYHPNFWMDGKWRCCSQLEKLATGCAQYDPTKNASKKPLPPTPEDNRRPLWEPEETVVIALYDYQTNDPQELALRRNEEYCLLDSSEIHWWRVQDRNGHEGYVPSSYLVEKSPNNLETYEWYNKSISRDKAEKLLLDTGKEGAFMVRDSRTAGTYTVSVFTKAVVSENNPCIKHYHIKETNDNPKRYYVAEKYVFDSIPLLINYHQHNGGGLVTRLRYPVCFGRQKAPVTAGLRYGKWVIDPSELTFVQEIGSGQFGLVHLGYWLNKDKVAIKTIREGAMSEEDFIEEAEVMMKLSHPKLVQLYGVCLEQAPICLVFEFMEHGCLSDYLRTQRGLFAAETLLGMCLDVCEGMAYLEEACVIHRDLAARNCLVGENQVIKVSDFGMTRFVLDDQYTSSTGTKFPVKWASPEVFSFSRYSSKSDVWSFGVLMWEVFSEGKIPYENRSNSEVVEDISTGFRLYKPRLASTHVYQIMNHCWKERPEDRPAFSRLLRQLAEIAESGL
Sequence of STK16 (human) (O75716 whole entry, looked up): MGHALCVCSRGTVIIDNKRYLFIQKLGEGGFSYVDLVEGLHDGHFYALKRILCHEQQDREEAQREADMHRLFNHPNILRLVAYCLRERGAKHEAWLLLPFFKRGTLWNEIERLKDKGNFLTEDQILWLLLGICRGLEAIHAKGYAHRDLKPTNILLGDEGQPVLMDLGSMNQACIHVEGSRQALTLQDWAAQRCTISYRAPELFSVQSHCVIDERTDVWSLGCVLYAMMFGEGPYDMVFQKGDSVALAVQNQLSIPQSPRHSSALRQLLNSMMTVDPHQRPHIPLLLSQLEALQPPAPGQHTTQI

SMILES	kinase still bound, per cent of control (AKT1 (human)) [%]	kinase still bound, per cent of control [1] [%]	kinase still bound, per cent of control (ITK (human)) [%]	kinase still bound, per cent of control (TGFBR1 (human)) [%]	kinase still bound, per cent of control (ERBB4 (human)) [%]	kinase still bound, per cent of control (STK16 (human)) [%]	kinase still bound, per cent of control [2] [%]	kinase still bound, per cent of control (CAMK2A (human)) [%]	kinase still bound, per cent of control (LATS1 (human)) [%]	kinase still bound, per cent of control (GAK (human)) [%]	kinase still bound, per cent of control (EIF2AK2 (human)) [%]	kinase still bound, per cent of control (VRK2 (human)) [%]	kinase still bound, per cent of control (PIP5K1A (human)) [%]	kinase still bound, per cent of control (MAK (human)) [%]	kinase still bound, per cent of control (LATS2 (human)) [%]	kinase still bound, per cent of control (MAPK11 (human)) [%]	kinase still bound, per cent of control (TIE1 (human)) [%]	kinase still bound, per cent of control (MERTK (human)) [%]	kinase still bound, per cent of control (NEK1 (human)) [%]	kinase still bound, per cent of control (MUSK (human)) [%]	further results
N#Cc1cc(-c2ccnc(Nc3ccc(-n4cnc(-c5cccnc5)n4)cc3)n2)cc(N2CCOCC2)c1	100	23	100	73	91	12	50	16	100	22	48	100	17	49	62	79	30	57	57	92	kinase still bound, per cent of control (MYLK (human)): 100%; kinase still bound, per cent of control (MAPK13 (human)): 61%; kinase still bound, per cent of control [3]: 62%; kinase still bound, per cent of control (EPHA8 (human)): 93%; kinase still bound, per cent of control (EPHA1 (human)): 42%; kinase still bound, per cent of control (RPS6KB1 (human)): 52%; kinase still bound, per cent of control (PKN2 (human)): 44%; kinase still bound, per cent of control (PRKG1 (human)): 100%; kinase still bound, per cent of control (NEK6 (human)): 76%; kinase still bound, per cent of control (MAPK14 (human)): 100%; kinase still bound, per cent of control (STK3 (human)): 100%; kinase still bound, per cent of control (TNK2 (human)): 61%; kinase still bound, per cent of control (DDR2 (human)): 100%; kinase still bound, per cent of control (FRK (human)): 92%; kinase still bound, per cent of control (ULK1 (human)): 37%; kinase still bound, per cent of control (FER (human)): 99%; kinase still bound, per cent of control (CAMK1D (human)): 87%; kinase still bound, per cent of control (KIT (human)): 0.65%; kinase still bound, per cent of control (PRKCH (human)): 83%; kinase still bound, per cent of control (MAP2K6 (human)): 41%
CC1=C(C(=O)Nc2cc3cn[nH]c3cc2F)C(c2ccc(C(F)(F)F)cc2)CC(=O)N1 (stereo not given)	76	23	74	100	41	100	69	100	60	100	76	87	89	100	10	92	75	91	91	95	kinase still bound, per cent of control (MYLK (human)): 75%; kinase still bound, per cent of control (MAPK13 (human)): 98%; kinase still bound, per cent of control [3]: 36%; kinase still bound, per cent of control (EPHA8 (human)): 71%; kinase still bound, per cent of control (EPHA1 (human)): 77%; kinase still bound, per cent of control (RPS6KB1 (human)): 50%; kinase still bound, per cent of control (PKN2 (human)): 52%; kinase still bound, per cent of control (PRKG1 (human)): 15%; kinase still bound, per cent of control (NEK6 (human)): 70%; kinase still bound, per cent of control (MAPK14 (human)): 100%; kinase still bound, per cent of control (STK3 (human)): 63%; kinase still bound, per cent of control (TNK2 (human)): 88%; kinase still bound, per cent of control (DDR2 (human)): 100%; kinase still bound, per cent of control (FRK (human)): 53%; kinase still bound, per cent of control (ULK1 (human)): 74%; kinase still bound, per cent of control (FER (human)): 100%; kinase still bound, per cent of control (CAMK1D (human)): 97%; kinase still bound, per cent of control (KIT (human)): 90%; kinase still bound, per cent of control (PRKCH (human)): 35%; kinase still bound, per cent of control (MAP2K6 (human)): 95%
